From patent US8058314B2, “Conductance of improperly folded proteins through the secretory pathway and related methods for treating disease” (Yale University, priority 1999, dated 2011)
Entries after “also recorded” stand apart in the source; their conditions may differ.

Assays:
[1] = system: α1-antitrypsin, null (Hong Kong); experiment: Secretion of α1-antitrypsin null (Hong Kong) from stably transfected mouse hepatoma cells, pulse-chase; type: cell-based; settings: 1 μM thapsigargin for 3 hours during chase
Method: Experiment 2 is repeated using a cell line that expresses a retention mutation for cc1-antitrypsin, such as the secretion-incompetent variant, null (Hong Kong), retained in stably transfected mouse hepatoma cells (J. Biol. Chem. 269:7514-7519 (1994)). Changes in the cell phenotype are assessed by assaying cells for secretion of a 1-antitrypsin (detailed description in J. Biol. Chem. 268:2001-2008 (1993)).
Briefly, cell monolayers are pulse labeled with [^35S] methionine for 30 minutes, after which the radiolabeled media is removed and replaced with media containing an excess of unlabeled methionine. During the chase period, one set of monolayers is treated with 1 μM thapsigargin for 3 hours, while another set is incubated for 3 hours in drug free media. Secretion of α1-antitrypsin into the media is assessed by immunoprecipitation followed by electrophoresis and autoradiography.
Results. Cells expressing the secretion-incompetent variant of α1-antitrypsin, null (Hong Kong), are pulse labeled for 30 minutes with [^35S] methionine, after which they were incubated in non-radioactive media for 3 hours in the presence or absence of 1 μM thapsigargin. After this chase incubation, the media is collected and subjected to immunoprecipitation with anti-α1-antitrypsin antibodies. Immunoprecipitates are analyzed by SDS-PAGE followed by autoradiography.

ΔF508 CFTR mice = experiment: Nasal potential difference (NPD) in CF mice homozygous for the ΔF508 mutation; type: in vivo; settings: nebulized 1 μM thapsigargin or 50 microM curcumin, 3 hours/day for 7-14 days
From the text: Materials and Methods. CF mice, which were the kind gift of Mitch Drumm, have had the ΔF508 mutation introduced into their endogenous copies of the CFTR gene by homologous recombination and are homozygous for the ΔF508 mutation. Construction of these mice is described in Zeiher, G. B., et al., A mouse model for the delta F508 allele of cystic fibrosis. J. Clin. Invest. 96: 2051-2064, 1995, and additional studies of these mice are described in Steagall W K and Drumm M L, Stimulation of cystic fibrosis transmembrane conductance regulator-dependent short-circuit currents across Delta F508 murine intestines. Gastroenterology, 116(6):1379-88, 1999.
Nasal potential difference was measured essentially as described in Grubb, B. R., Vick, R. N., and Boucher, R. C., Hyperabsorption of Na^+ and raised Ca^2+-mediated Cl^− secretion in nasal epithelia of CF mice, Am. […]
After obtaining a stable baseline reading, infusion of Ringers solution was begun, and recording was initiated. After 5 mins of stable reading, the solution was changed successively to: (i) Ringer solution containing amiloride 10^−5 M; (ii) Ringer solution containing 0 mM chloride and 10^−5 M amiloride; (iii) Ringer solution containing 0 mM chloride, 10^−5 M amiloride, and 10^−5 M isoproterenol. NPD was recorded for each solution for 5 minutes of stable values. […]

[2] = Toxicity test, thapsigargin in drinking water; type: in vivo, mice; settings: drinking water with 1 μM thapsigargin over 3 to 7 days
Method: Genetically uniform lab mice were given either normal drinking water (control) or drinking water which contained thapsigargin (1 μM final concentration). The non-control group of mice were given the thapsigargin-treated water over a 3 to 7 day time period.

SMILES: C/C=C(/C)C(=O)O[C@H]1C(C)=C2[C@H]([C@@H]1OC(=O)CCCCCCC)[C@@](C)(OC(C)=O)C[C@H](OC(=O)CCC)[C@@]1(O)[C@H]2OC(=O)[C@@]1(C)O [thapsigargin]
- radiolabeled α1-antitrypsin in the media [1]: Radiolabeled α1-antitrypsin protein is present in the media
- basal NPD of treated ΔF508 CF mice (ΔF508 CFTR mice): markedly reduced relative to that in untreated CF mice; also recorded: dramatically reduce the basal NPD; also recorded: significantly smaller baseline NPD
- deaths, illnesses or side effects [2]: no deaths, illnesses or side effects
